{"source": "paper PMC3642162", "about": "(FEBS Open Bio, 2012)", "key": {"human TRα-1 and TRβ-1": {"system": "human TRα-1 and TRβ-1", "test": "TR biosensors", "format": "cell-based", "conditions": "both biosensor strains"}, "TRα and TRβ": {"system": "TRα and TRβ", "conditions": "cited from earlier work"}, "TRβ": {"system": "TRβ", "conditions": "cited from earlier work"}, "porcine ER β": {"system": "porcine ER β", "conditions": "porcine ER β biosensor; cited from earlier work"}, "human ER β": {"system": "human ER β", "conditions": "human ER β biosensor, relative to 100% for 17-β-estradiol; cited from earlier work"}, "TRα": {"system": "TRα", "conditions": "transcriptional activation assay; cited from earlier work"}, "human TRα-1": {"molecular_target": "T1, human TRα-1 (Homo sapiens, UniProt P10827)", "T1 sequence (P10827 149-407 isoform P10827-2)": "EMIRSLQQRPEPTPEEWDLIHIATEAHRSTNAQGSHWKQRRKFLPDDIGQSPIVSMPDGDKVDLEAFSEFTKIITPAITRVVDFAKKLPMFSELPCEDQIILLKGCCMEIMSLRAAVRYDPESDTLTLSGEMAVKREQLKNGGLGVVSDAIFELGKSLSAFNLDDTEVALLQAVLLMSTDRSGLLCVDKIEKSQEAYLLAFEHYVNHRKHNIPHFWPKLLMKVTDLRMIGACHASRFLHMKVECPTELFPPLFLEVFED", "format": "cell-based"}}}
{"compound": "N[C@@H](Cc1cc(I)c(Oc2ccc(O)c(I)c2)c(I)c1)C(=O)[O-].O.[Na+]", "note": "[T3, 3,3′,5-triiodo-L-thyronine sodium salt hydrate]", "values": [{"measurement": "TR biosensors, qualitative activity", "setting": "human TRα-1 and TRβ-1", "value": "Agonist"}, {"measurement": "Other methods, reported activity", "setting": "TRα and TRβ", "value": "Agonist"}]}
{"compound": "O=C(O)Cc1cc(I)c(Oc2ccc(O)c(I)c2)c(I)c1", "note": "[Triac, 3,3′,5-triiodothyroacetic acid]", "values": [{"measurement": "TR biosensors, qualitative activity", "setting": "human TRα-1 and TRβ-1", "value": "Agonist, TRβ selective"}, {"measurement": "Potency higher than T3", "setting": "TRα and TRβ; binding to TRβ", "value": 6, "unit": "fold"}, {"measurement": "Other methods, reported activity", "setting": "TRα and TRβ", "value": "Agonist, TRβ selective"}, {"measurement": "Affinity higher than T3", "setting": "TRβ", "value": "approximately 3 fold"}]}
{"compound": "CC(C)(c1ccc(O)cc1)c1ccc(O)cc1", "note": "[bisphenol A]", "values": [{"measurement": "Relative binding affinity (RBA=EC50Estradiol/EC50Ligand×100 %)", "setting": "porcine ER β", "value": 0.13, "unit": "%"}, {"measurement": "Relative binding affinity (RBA=EC50Estradiol/EC50Ligand×100 %)", "setting": "human ER β", "value": 1.15, "unit": "%"}]}
{"compound": "CC(C)c1cc(Oc2c(Cl)cc(CC(=O)O)cc2Cl)ccc1O", "note": "[KB-141, 3,5-dichloro-4-(4-hydroxy-3-isopropylphenoxy) phenylacetic acid]", "values": [{"measurement": "TR biosensors, qualitative activity", "setting": "human TRα-1 and TRβ-1", "value": "Agonist, TRβ selective"}, {"measurement": "Other methods, reported activity", "setting": "TRα and TRβ", "value": "Agonist, TRβ selective"}]}
{"compound": "Cc1cc(OCC(=O)O)cc(C)c1Cc1ccc(O)c(C(C)C)c1", "note": "[GC-1, 3,5-dimethyl-4-(4′-hydroxy-3′-isopropylbenzyl)-phenoxy acetic acid]", "values": [{"measurement": "TR biosensors, qualitative activity", "setting": "human TRα-1 and TRβ-1", "value": "Agonist, TRβ selective"}, {"measurement": "Other methods, reported activity", "setting": "TRα and TRβ", "value": "Agonist, TRβ selective"}, {"measurement": "EC50", "setting": "TRα", "value": "[…]"}, {"measurement": "EC50T3/EC50Ligand·100%", "setting": "human TRα-1", "value": 89.66, "unit": "%"}, {"measurement": "Detection limit (lowest concentration giving unambiguous growth signal)", "setting": "human TRα-1; TRα biosensor, visual inspection of dose-response curves", "value": "[…]"}, {"measurement": "Z′", "setting": "human TRα-1; pMIT::TRα-1, Z′ factor, highest vs lowest ligand concentration", "value": 0.79}]}
